From patent publication US9221792B2, “N-(4-(azetidine-1-carbonyl) phenyl)-(hetero-) arylsulfonamide derivatives as pyruvate kinase M2 (PMK2) modulators” (AGIOS PHARMACEUTICALS, INC, priority 2010, dated 2015)
Read-outs that look alike come from different tables or passages of the source.

Target: PKM2 (Homo sapiens, UniProt P14618)
Assay: PKM2 Assay (activation, LDH-coupled NADH absorbance at 340 nm)
Format: biochemical
Experimental: • PKM2 stock enzyme solution was diluted in Reaction Buffer • 2 μL of compound was added into each well first, and then 180 μL of the Reaction Mix was added. • Reaction mixture with compound (without ADP) were incubated for 30 minutes at 4° C. • Plates were re-equilibrated to room temperature prior to adding 20 μL ADP to initiate the reaction. • Reaction progress was measured as changes in absorbance at 340 nm wavelength at room temperature (25° C.) Reaction Mix: PKM2 (50 ng/well), ADP (0.7 mM), PEP (0.15 mM), NADH (180 μM), LDH (2 units) in Reaction Buffer Reaction Buffer: 100 mM KCl, 50 mM Tris pH 7.5, 5 mM MgCl2, 1 mM DTT, 0.03% BSA.
Certain compounds of Formula I were tested in the above-described assay. A compound described herein may be tested for its ability to activate PKM2. The activation activity of these compounds is represented as an AC50 in Table 2 and throughout the application. […] “B” refers to an activator of PKM2 with an EC50 between 100 nM and 1 μM. “C” refers to an activator of PKM2 with an EC50 between 1 μM and 10 μM. “D” refers to an activator of PKM2 with an EC50 greater than 10 μM. “NA” refers to data that is not available.

[1] = activation of PKM2, PKM2 50 ng/well, ADP 0.7 mM, PEP 0.15 mM, room temperature (25° C.), read-out: AC50

Sequence of PKM2 (P14618 whole entry): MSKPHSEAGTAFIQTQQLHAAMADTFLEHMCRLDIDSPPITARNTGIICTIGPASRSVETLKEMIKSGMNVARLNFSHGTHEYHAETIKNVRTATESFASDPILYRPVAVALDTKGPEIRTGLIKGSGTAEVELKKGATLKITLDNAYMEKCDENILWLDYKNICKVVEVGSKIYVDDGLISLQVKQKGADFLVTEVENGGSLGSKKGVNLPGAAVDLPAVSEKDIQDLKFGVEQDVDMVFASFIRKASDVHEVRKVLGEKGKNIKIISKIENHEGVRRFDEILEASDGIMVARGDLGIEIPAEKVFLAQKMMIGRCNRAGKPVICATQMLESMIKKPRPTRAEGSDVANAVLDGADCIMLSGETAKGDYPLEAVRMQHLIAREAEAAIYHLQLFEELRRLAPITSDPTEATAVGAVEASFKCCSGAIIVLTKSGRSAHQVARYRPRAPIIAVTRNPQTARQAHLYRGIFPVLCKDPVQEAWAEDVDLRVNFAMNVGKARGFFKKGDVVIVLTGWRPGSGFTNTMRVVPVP

SMILES | AC50 [1] [nM] | AC50 [nM]
O=C(OC1CN(C(=O)c2ccc(NS(=O)(=O)c3cccc4cccnc34)c(F)c2)C1)c1ccccn1 [Compound 124, 1-(3-Fluoro-4-(quinoline-8-sulfonamido)benzoyl)azetidin-3-yl picolinate] | 1000 to 10000 | –
O=C(Nc1ccccn1)NC1CN(C(=O)c2ccc(NS(=O)(=O)c3cccc4cccnc34)cc2)C1 [Compound 160, N-(4-(3-(3-(Pyridin-2-yl)ureido)azetidine-1-carbonyl)phenyl)quinoline-8-sulfonamide] | 100 to 1000 | –
COc1cc(NS(=O)(=O)c2cccc3cccnc23)ccc1C(=O)N1CC(OC(=O)NC(C)C)C1 [Compound 133, 1-(2-Methoxy-4-(quinoline-8-sulfonamido)benzoyl)azetidin-3-yl isopropylcarbamate] | 100 to 1000 | –
COc1cc(C(=O)N2CC(OC(=O)Nc3ccccn3)C2)ccc1NS(=O)(=O)c1cccc2cccnc12 [Compound 156, 1-(3-Methoxy-4-(quinoline-8-sulfonamido)benzoyl)azetidin-3-yl pyridin-2-ylcarbamate] | 100 to 1000 | –
C=CCNC(=O)NC1CN(C(=O)c2ccc(NS(=O)(=O)c3cccc4cccnc34)c(OC)c2)C1 [Compound 140, N-(4-(3-(3-Allylureido)azetidine-1-carbonyl)-2-methoxyphenyl)quinoline-8-sulfonamide] | 1000 to 10000 | –
CN(c1ccccc1)C1CN(C(=O)c2ccc(NS(=O)(=O)c3cccc4cccnc34)cc2)C1 [Compound 122] | < 100 | –
COc1cc(NS(=O)(=O)c2cccc3cccnc23)ccc1C(=O)N1CC(O)C1 [Compound 143] | > 10000 | –
Cc1cc(C(=O)N2CC(Nc3ccccn3)C2)ccc1NS(=O)(=O)c1cccc2cccnc12 [Compound 151] | < 100 | –
COc1ccccc1N(C)C1CN(C(=O)c2ccc(S(=O)(=O)Nc3cccc4cccnc34)cc2)C1 [Compound 128] | > 10000 | –
COc1ccncc1NC1CN(C(=O)c2ccc(NS(=O)(=O)c3cccc4cccnc34)c(C)c2)C1 [Compound 153] | 100 to 1000 | –
COc1ccccc1OC1CN(C(=O)c2ccc(NS(=O)(=O)c3cccc4cccnc34)c(C)c2)C1 [Compound 159] | < 100 | –
Cc1cc(C(=O)N2CC(Oc3ccccc3)C2)ccc1NS(=O)(=O)c1cccc2cccnc12 [Compound 106] | < 100 | –
C=CCNC(=O)NC1CN(C(=O)c2ccc(NS(=O)(=O)c3cccc4cccnc34)cc2)C1 [Compound 139, N-(4-(3-(3-Allylureido)azetidine-1-carbonyl)phenyl)quinoline-8-sulfonamide] | 1000 to 10000 | –
COc1ccccc1NC1CN(C(=O)c2ccc(S(=O)(=O)Nc3cccc4cccnc34)cc2)C1 [Compound 116] | > 10000 | –
COC1(Cc2ccccc2)CN(C(=O)c2ccc(NS(=O)(=O)c3cccc4cccnc34)cc2)C1 [Compound 105, N-(4-(3-benzyl-3-methoxyazetidine-1-carbonyl)phenyl)quinoline-8-sulfonamide] | 100 to 1000 | –
O=C(OC1CN(C(=O)c2ccc(NS(=O)(=O)c3cccc4cccnc34)cc2)C1)c1ccccn1 [Compound 102, 1-(4-(Quinoline-8-sulfonamido)benzoyl)azetidin-3-yl picolinate] | 1000 to 10000 | –
O=C(c1ccc(NS(=O)(=O)c2cccc3cccnc23)cc1)N1CC(O)(c2ccccc2)C1 [Compound 136] | 100 to 1000 | –
Cc1cc(C(=O)N2CC(Nc3ccccc3)C2)ccc1NS(=O)(=O)c1cccc2cccnc12 [Compound 145] | < 100 | –
Cc1cc(C(=O)N2CC(OC(=O)c3ccccn3)C2)ccc1NS(=O)(=O)c1cccc2cccnc12 [Compound 110, 1-(3-Methyl-4-(quinoline-8-sulfonamido)benzoyl)azetidin-3-yl picolinate] | 100 to 1000 | –
COc1ccccc1OC1CN(C(=O)c2ccc(NS(=O)(=O)c3cccc4cccnc34)c(F)c2)C1 [Compound 154] | 100 to 1000 | –
CC(C)NC(=O)NC1CN(C(=O)c2ccc(NS(=O)(=O)c3cccc4cccnc34)cc2)C1 [Compound 163] | 1000 to 10000 | –
COc1cc(NS(=O)(=O)c2cccc3cccnc23)ccc1C(=O)N1CC(C)(O)C1 [Compound 127] | 1000 to 10000 | –
O=C(c1ccc(NS(=O)(=O)c2cccc3cccnc23)cc1)N1CC(O)C1 [Compound 141] | > 10000 | –
Cc1cc(C(=O)N2CC(N(C)Cc3ccccc3)C2)ccc1NS(=O)(=O)c1cccc2cccnc12 [Compound 109, N-(4-(3-(benzyl(methyl)amino)azetidine-1-carbonyl)-2-methylphenyl)quinoline-8-sulfonamide] | 100 to 1000 | –
COc1ccccc1NC1CN(C(=O)c2ccc(NS(=O)(=O)c3cccc4cccnc34)c(C)c2)C1 [Compound 114] | < 100 | –
O=C(Cc1ccccc1)OC1CN(C(=O)c2ccc(NS(=O)(=O)c3cccc4cccnc34)cc2)C1 [Compound 123, 1-(4-(Quinoline-8-sulfonamido)benzoyl)azetidin-3-yl 2-phenylacetate] | – | 100 to 1000
